According to US8951993B2, “Phosphorus containing compounds as protein kinase inhibitors” (Jiangsu Hansoh Pharmaceutical Co., Ltd., priority 2011, dated 2015):
pIC50: −log10 of the molar value. Read-outs that look alike come from different tables or passages of the source.

Legend:
[1] = test system: Karpas299; assay: Cell proliferation assay (MTS / BrdU), Karpas299; type: cell-based; details: Homo sapiens, KARPAS-299; 72 hours, 2% FBS
Procedure: (§1) Karpas299 and SU-DHL-1 cells were purchased from Deutsche Sammlung von Mikroorganismen and Zellkulturen (Germany). H2228 was purchased from American Type Culture Collection (USA). All cells were cultured in the recommended medium and serum concentration. Cells were maintained at 37° C. in a humidified atmosphere with 5% CO2. For ALK kinase phosphorylation, cells were seeded in 96-well plates overnight in medium supplemented with 10% fetal bovine serum […]. After 24 hours, the medium was removed and cells were cultured in serum-free medium at 37° C. in the presence of various concentrations of the test articles for 1 hour. After incubation with the tested articles, cells were washed once with HBSS supplemented with 1 mM Na3VO4 and protein lysates were generated. Subsequently, phosphorylation of ALK was assessed by a sandwich ELISA method using an immobilized anti-total-ALK antibody and an anti-phospho-ALK antibody (pY1604) as a detection antibody. IC50 value was calculated using median-effect method. (Chou 2006).
(§2) For cell proliferation assay, cells were seeded in 96-well pates at low density at 37° C. in medium supplemented with 10% FBS and after 24 hours were switched to low serum medium (2% FBS). Cells were further incubated in the presence of the test articles at various concentrations at 37° C. for 72 hours. Two assays were employed to determine the relative cell numbers. One is a 3-(4,5-dimethylthiazol-2-yl)-5-(3-carboxymethoxyphenyl)-2-(4-sulfophenyl)-2H-tetrazolium (MTS) assay using a CellTiter 96® Aqueous Non-Radioactive Cell Proliferation kit (Promega), and the other is a BrdU incorporation assay using a DELFIA® Cell Proliferation Kit (Perkin Elmer). IC50 value was calculated using median-effect method (Chou 2006).

[2] = test system: SU-DHL-1; assay: Cell proliferation assay (MTS / BrdU), SU-DHL-1; type: cell-based; details: Homo sapiens, 72 hours, 2% FBS
Procedure: as §1, §2

[3] = test system: H2228; assay: Cell proliferation assay (MTS / BrdU), H2228; type: cell-based; details: Homo sapiens, NCI-H2228; 72 hours, 2% FBS
Procedure: as §1, §2

[4] = biological target: T1, ALK (Homo sapiens, UniProt Q9UM73); assay: ALK enzyme activity assay (HTRF KinEASE); type: biochemical; set-up: purchased Millipore Company (Billerica, Mass., USA); details: ATP 25 μM, 30° C. 30 minutes
Procedure: ALK Enzyme Activity Assay:
ALK kinase was purchased from Millipore Company (Billerica, Mass., USA). HTRF®KinEASET™ was purchased from Cisbio Company (Bedford, Mass., USA). The assay was conducted according to the procedure provided in the assay kit. In brief, incubation was carried out in the kinase buffer containing ALK (0.3 ng/μL), ATP (25 μM), TK substrate-biotin (10 μM), DTT (1 mM), MgCl2 (5 mM), MnCl2 (5 mM) in the presence of the tested articles at various concentrations in 384-well plate at 30° C. for 30 minutes. The reaction was stopped by addition of Sa-XL665 in EDTA solution, and the phosphorylated substrate was detected with a proprietary phospho-specific monoclonal antibody labeled with Eu^3+-Cryptate and a proprietary biotinylated kinase substrate detected using XL665 labeled streptavidin. IC50 value was calculated using median-effect method (Chou 2006).
Target sequence in this assay (Q9UM73 19-1620): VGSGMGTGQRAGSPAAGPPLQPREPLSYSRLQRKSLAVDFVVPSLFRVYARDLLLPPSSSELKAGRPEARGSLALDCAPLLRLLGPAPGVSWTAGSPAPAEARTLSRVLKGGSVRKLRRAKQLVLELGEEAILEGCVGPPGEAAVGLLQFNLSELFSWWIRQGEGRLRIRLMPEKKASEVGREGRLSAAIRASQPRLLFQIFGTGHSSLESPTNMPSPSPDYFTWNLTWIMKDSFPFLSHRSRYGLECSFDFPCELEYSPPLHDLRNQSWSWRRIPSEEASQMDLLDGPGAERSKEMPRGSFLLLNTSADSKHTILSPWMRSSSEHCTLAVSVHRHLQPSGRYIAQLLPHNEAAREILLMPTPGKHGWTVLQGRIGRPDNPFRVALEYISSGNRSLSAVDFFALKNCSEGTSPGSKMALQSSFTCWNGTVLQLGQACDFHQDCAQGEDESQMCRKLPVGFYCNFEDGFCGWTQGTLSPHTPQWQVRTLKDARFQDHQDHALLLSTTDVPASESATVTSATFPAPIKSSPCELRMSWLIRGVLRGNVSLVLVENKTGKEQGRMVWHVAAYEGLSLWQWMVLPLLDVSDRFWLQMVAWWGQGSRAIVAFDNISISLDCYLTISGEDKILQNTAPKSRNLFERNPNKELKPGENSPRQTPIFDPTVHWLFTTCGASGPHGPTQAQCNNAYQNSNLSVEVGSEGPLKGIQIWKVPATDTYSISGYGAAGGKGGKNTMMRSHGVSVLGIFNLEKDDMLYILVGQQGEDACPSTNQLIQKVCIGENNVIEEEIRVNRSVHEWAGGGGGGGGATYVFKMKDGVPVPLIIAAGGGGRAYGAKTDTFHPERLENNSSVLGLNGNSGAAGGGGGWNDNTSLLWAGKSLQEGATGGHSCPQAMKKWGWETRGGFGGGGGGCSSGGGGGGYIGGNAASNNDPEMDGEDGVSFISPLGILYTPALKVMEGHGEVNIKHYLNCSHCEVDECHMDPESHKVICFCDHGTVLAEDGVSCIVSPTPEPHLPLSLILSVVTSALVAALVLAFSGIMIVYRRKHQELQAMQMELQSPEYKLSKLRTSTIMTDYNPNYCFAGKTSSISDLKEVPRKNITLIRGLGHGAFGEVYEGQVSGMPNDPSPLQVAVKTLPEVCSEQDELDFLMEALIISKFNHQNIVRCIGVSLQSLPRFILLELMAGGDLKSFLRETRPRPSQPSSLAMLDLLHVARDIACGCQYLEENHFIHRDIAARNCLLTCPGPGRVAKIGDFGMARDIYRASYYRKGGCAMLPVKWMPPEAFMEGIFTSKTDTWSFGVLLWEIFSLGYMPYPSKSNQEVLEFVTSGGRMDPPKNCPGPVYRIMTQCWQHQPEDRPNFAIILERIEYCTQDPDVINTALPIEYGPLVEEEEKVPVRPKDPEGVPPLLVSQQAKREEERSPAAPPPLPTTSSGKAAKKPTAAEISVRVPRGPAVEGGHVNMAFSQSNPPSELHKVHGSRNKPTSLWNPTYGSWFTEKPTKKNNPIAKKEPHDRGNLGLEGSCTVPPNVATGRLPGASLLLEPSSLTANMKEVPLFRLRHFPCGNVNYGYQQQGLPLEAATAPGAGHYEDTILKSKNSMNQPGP

[5] = biological target: T1, ALK; assay: Inhibition of ALK phosphorylation (sandwich ELISA, pY1604), cell line not given; type: cell-based; set-up: fused on or other part: Q9HC35 (Echinoderm microtubule-associated protein-like 4); details: 1 hour, serum-free
Procedure: as §1
Target sequence in this assay (Q9UM73 1058-1620 limits assumed): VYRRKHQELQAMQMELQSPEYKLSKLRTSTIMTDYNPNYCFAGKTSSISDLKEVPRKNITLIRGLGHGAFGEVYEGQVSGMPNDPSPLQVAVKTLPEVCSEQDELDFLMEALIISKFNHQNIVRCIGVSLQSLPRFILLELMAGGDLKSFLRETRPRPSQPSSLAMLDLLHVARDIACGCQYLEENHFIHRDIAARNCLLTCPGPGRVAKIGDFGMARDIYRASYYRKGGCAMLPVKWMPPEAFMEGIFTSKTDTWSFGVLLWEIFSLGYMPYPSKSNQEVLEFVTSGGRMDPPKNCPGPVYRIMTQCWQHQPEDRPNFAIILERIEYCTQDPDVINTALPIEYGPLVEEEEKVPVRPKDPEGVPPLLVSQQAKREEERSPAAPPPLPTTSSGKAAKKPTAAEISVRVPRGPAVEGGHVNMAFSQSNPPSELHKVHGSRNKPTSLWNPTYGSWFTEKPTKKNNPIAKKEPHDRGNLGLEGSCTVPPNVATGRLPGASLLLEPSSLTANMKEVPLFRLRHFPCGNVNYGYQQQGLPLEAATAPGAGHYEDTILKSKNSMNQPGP

[6] = biological target: T1, ALK; assay: Inhibition of ALK phosphorylation (sandwich ELISA, pY1604) in Karpas299 cells; type: cell-based; set-up: NPM1 portion (fusion partner, nucleophosmin, P06748); host or cells: Karpas299; SU-DHL-1; the other entry of the earlier key: NPM1 (P06748, Nucleophosmin); details: 1 hour, serum-free
Procedure: as §1
Target sequence in this assay (Q9UM73 with tags, fused parts or gaps): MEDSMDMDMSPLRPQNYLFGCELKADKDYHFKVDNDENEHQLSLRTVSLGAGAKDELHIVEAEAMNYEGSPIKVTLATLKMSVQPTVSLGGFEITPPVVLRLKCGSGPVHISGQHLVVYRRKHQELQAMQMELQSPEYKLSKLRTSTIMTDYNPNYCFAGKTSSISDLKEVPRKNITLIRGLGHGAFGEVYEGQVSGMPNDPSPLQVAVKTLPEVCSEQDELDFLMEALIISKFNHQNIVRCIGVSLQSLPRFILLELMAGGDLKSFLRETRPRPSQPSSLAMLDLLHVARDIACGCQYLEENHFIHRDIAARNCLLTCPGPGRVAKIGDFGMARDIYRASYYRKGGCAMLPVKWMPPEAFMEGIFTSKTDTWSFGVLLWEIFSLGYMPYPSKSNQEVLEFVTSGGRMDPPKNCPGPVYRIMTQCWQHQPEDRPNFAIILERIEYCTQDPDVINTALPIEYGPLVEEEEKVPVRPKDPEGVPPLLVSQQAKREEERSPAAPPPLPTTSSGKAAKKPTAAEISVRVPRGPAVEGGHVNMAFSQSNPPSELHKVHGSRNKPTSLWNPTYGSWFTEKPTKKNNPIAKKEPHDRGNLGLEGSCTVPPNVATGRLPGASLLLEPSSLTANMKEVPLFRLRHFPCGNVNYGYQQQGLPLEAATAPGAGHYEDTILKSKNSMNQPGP

[7] = biological target: T1, ALK; assay: Inhibition of ALK phosphorylation (sandwich ELISA, pY1604) in SU-DHL-1 cells; type: cell-based; set-up: NPM1 portion (fusion partner, nucleophosmin, P06748); host or cells: Karpas299; SU-DHL-1; the other entry of the earlier key: NPM1 (P06748, Nucleophosmin); details: 1 hour, serum-free
Procedure: as §1

[8] = Pharmacokinetic assay, intravenous and oral administration; type: in vivo, Sprague-Dawley rats or beagle dogs; details: plasma; for half-life: after oral administration in rats or dogs; for bioavailability: oral administration in rats or dogs, read-out: oral bioavailabilty
Procedure: The tested articles were given to Sprague-Dawley rats or beagle dogs by intravenous and oral administration. Plasma samples were prepared from blood samples which were collected at various time points. The plasma concentrations of the tested articles were determined by specific LC-MS/MS analytical methods. Pharmacokinetic parameters were calculated with WinNonlin®.

[9] = biological target: T2, ALK wild type (Homo sapiens, UniProt Q9UM73); assay: Off-chip mobility shift assay (Carna Biosciences), ALK wild type; type: biochemical
T2 construct: purchased Carna Biosciences (Chuo-ku, Kobe, Japan)
Procedure: (§3) The activities of ALK wild type, its mutant F1174L, R1275Q, L1196M and EML4-ALK, NPM1-ALK were also determined using off-chip mobility shift assay at Carna Biosciences (Chuo-ku, Kobe, Japan). In brief, 5 μL of ×4 compound solution, 5 μL of ×4 substrate/ATP/metal solution and 10 μL of ×2 kinase solution were prepared with assay buffer (20 mM HEPES, 0.01% Triton X-100, 2 mM DTT, pH 7.5) and mixed and incubated in a well of polypropylene 384 well microplate for 1 or 5 hours (depending on the enzyme). The ATP concentration used in the reaction was 50 μM for ALK wild type, F1174L mutant, EML4-ALK and NPM1-ALK, and 100 μM for R1275Q and 72 μM for L1196M. An aliquot of 60 μL of termination buffer (QuickScout Screening Assist MSA, Carna Biosciences) was added to each well to terminate the reactions. The reaction mixture was applied to LabChip3000 system (Caliper Life Science), and the product and substrate peptide peaks were separated and quantitated. The kinase reaction was evaluated by the product ratio calculated from peak heights of product (P) and substrate (S) peptides (P/(P+S)). IC50 value was calculated from concentration vs. % Inhibition curves by fitting to a four parameter logistic curve.

[10] = biological target: T3, ALK mutant F1174L (Homo sapiens, UniProt Q9UM73, F1174L); assay: Off-chip mobility shift assay (Carna Biosciences), ALK F1174L; type: biochemical
T3 construct: purchased Carna Biosciences (Chuo-ku, Kobe, Japan)
Procedure: as §3

[11] = biological target: T4, ALK mutant R1275Q (Homo sapiens, UniProt Q9UM73, R1275Q); assay: Off-chip mobility shift assay (Carna Biosciences), ALK R1275Q; type: biochemical
T4 construct: purchased Carna Biosciences (Chuo-ku, Kobe, Japan)
Procedure: as §3

[12] = biological target: T5, ALK mutant L1196M (Homo sapiens, UniProt Q9UM73, L1196M); assay: Off-chip mobility shift assay (Carna Biosciences), ALK L1196M; type: biochemical
T5 construct: purchased Carna Biosciences (Chuo-ku, Kobe, Japan)
Procedure: as §3

[13] = biological target: T6, EML4-ALK (Homo sapiens, UniProt Q9UM73); assay: Off-chip mobility shift assay (Carna Biosciences), EML4-ALK; type: biochemical
T6 construct: purchased Carna Biosciences (Chuo-ku, Kobe, Japan); the other entry of the earlier key: EML4 (Q9HC35, Echinoderm microtubule-associated protein-like 4)
Procedure: as §3

[14] = biological target: T7, NPM1-ALK (Homo sapiens, UniProt Q9UM73); assay: Off-chip mobility shift assay (Carna Biosciences), NPM1-ALK; type: biochemical
T7 construct: purchased Carna Biosciences (Chuo-ku, Kobe, Japan); the other entry of the earlier key: NPM1 (P06748, Nucleophosmin)
Procedure: as §3

[15] = test system: lung cancer cell line H2228; assay: H2228 xenograft studies in athymic mice; type: in vivo, athymic mice (nude/nud mouse); details: for reduced the tumor size: 14 days oral dosing at 60 mg/kg (BID)
Text: Xenograft model was developed in athymic mice (nude/nud mouse) with lung cancer cell line H2228 purchased from the American Type Culture Collection Company (Manassas, Va., USA). In brief, H2228 cells (1×10^7) were implanted s.c. into the hind flank region of each mouse and allowed to grow to the designated size (c.a. 150-200 mm^3) before administration of the tested articles. The tested articles were given orally at various dose levels twice daily for 10-14 days. Tumor volume and body weight were measured during the experiments. Tumor regression values were determined using the standard approach.

[16] = biological target: cytochrome P450 3A4 (Homo sapiens, UniProt P08684); details: reported; causing clinical drug-drug interactions; cited from earlier work
[17] = footnote #: ALK wild type, read-out: IC50 ALK Kinase (# ALK wild type)
[18] = mobility shift, ATP 50 μM, read-out: IC50 ALK wild type
[19] = footnote #: F1174L, read-out: IC50 ALK Kinase (# mutant F1174L)
[20] = mobility shift, ATP 50 μM, read-out: IC50 ALK F1174L
[21] = footnote #: R1275Q, read-out: IC50 ALK Kinase (# mutant R1275Q)
[22] = mobility shift, ATP 100 μM, read-out: IC50 ALK R1275Q
[23] = footnote #: L1196M, read-out: IC50 ALK Kinase (# mutant L1196M)
[24] = mobility shift, ATP 72 μM, read-out: IC50 ALK L1196M
[25] = footnote #: EML4-ALK, read-out: IC50 ALK Kinase (# EML4-ALK)
[26] = mobility shift, ATP 50 μM, read-out: IC50 EML4-ALK
[27] = footnote #: NPM1-ALK, read-out: IC50 ALK Kinase (# NPM1-ALK)
[28] = mobility shift, ATP 50 μM, read-out: IC50 NPM1-ALK

T5 sequence (Q9UM73 19-1620 L1196M): as the sequence (Q9UM73 19-1620) above, with L1178M counted along it
T4 sequence (Q9UM73 19-1620 R1275Q): as the sequence (Q9UM73 19-1620) above, with R1257Q counted along it
T3 sequence (Q9UM73 19-1620 F1174L): as the sequence (Q9UM73 19-1620) above, with F1156L counted along it
T6 sequence (Q9UM73 with tags, fused parts or gaps): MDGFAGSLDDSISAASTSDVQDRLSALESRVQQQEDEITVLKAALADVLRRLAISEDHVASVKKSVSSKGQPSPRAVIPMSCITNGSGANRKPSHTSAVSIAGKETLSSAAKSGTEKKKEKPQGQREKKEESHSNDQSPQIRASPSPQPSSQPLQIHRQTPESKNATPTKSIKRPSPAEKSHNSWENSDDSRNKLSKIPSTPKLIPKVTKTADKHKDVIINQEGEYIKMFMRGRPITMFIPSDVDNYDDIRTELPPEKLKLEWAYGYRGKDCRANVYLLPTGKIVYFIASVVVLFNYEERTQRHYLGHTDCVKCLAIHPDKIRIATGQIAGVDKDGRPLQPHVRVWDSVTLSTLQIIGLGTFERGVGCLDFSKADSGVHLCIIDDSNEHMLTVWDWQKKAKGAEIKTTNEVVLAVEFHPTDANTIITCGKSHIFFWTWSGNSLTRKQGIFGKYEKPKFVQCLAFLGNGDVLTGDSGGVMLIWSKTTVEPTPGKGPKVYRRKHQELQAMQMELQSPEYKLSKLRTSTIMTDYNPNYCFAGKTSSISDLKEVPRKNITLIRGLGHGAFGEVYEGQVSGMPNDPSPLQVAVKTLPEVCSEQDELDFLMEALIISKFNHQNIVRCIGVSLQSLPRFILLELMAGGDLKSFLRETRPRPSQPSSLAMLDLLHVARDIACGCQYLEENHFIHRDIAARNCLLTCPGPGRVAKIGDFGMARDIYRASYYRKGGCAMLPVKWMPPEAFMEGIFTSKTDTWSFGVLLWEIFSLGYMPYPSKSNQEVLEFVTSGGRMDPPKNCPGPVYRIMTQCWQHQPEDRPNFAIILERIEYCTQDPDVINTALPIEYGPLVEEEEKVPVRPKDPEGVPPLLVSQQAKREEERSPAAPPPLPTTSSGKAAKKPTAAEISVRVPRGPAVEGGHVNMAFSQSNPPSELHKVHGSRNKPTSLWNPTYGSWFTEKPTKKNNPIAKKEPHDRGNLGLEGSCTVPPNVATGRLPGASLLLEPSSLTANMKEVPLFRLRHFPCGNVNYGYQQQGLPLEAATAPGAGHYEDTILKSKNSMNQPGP
T2 sequence (Q9UM73 19-1620): as the sequence (Q9UM73 19-1620) above
Chain of cytochrome P450 3A4 (P08684 whole entry): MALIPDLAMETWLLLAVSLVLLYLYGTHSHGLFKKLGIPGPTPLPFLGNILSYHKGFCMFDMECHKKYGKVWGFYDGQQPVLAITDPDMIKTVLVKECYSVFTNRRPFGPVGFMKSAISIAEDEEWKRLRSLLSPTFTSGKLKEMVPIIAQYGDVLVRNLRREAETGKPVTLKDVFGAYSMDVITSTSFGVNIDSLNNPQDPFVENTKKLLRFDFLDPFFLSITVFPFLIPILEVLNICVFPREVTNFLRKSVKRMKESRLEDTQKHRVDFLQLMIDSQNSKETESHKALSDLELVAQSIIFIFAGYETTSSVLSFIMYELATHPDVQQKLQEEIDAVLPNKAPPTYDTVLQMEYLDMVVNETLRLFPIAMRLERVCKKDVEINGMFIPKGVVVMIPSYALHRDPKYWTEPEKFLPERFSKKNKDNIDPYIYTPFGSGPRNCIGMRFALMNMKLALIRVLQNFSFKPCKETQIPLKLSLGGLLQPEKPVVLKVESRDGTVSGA

With `C[C@@H](Oc1cc(-c2ccc(P(C)(C)=O)cc2)cnc1N)c1c(Cl)ccc(F)c1Cl` [Example 23, 3-[(1R)-1-(2,6-dichloro-3-fluoro-phenyl)ethoxy]-5-(4-dimethylphosphorylphenyl)pyridin-2-amine] the pIC50 [1] was greater than 7.00, the pIC50 [2] was greater than 7.00 and the pIC50 [3] was greater than 7.00. For the same molecule, the pIC50 [4] was 6.30 to 7.00, the pIC50 [5] was greater than 7.30 and the pIC50 [6] was greater than 7.00. It also gave a pIC50 [7] greater than 7.30.
`CC(Oc1cc(-c2ccc(P(C)(C)=O)cc2)cnc1N)c1c(Cl)ccc(F)c1Cl` (stereo not shown) [Example 1, 3-[1-(2,6-dichloro-3-fluoro-phenyl)ethoxy]-5-(4-dimethylphosphorylphenyl)pyridin-2-amine] showed a pIC50 [1] of 6.30 to 7.00, a pIC50 [2] greater than 7.00 and a pIC50 [3] greater than 7.00. The half-life [8] was greater than 3 h, the bioavailability [8] was greater than 20% and the pIC50 [4] was 6.30 to 7.00. It also gave a pIC50 [5] greater than 6.30 and a pIC50 [6] greater than 7.00.
Molecule `COc1cc(P(C)(C)=O)ccc1-c1cnc(N)c(OC(C)c2c(Cl)ccc(F)c2Cl)c1` (stereo not shown) [Example 8, 3-[1-(2,6-dichloro-3-fluoro-phenyl)ethoxy]-5-(4-dimethylphosphoryl-2-methoxy-phenyl)pyridin-2-amine] has a pIC50 [1] greater than 7.00, a pIC50 [2] greater than 7.00 and a pIC50 [3] greater than 7.00. It also gave a half-life [8] greater than 3 h, a bioavailability [8] greater than 20% and a pIC50 [4] greater than 7.00. It also gave a pIC50 [6] greater than 7.00 and a pIC50 [7] greater than 7.30.
For `COc1cc(P(C)(C)=O)ccc1-c1cnc(N)c(O[C@H](C)c2c(Cl)ccc(F)c2Cl)c1` [Example 24, 3-[(1R)-1-(2,6-dichloro-3-fluoro-phenyl)ethoxy]-5-(4-dimethylphosphoryl-2-methoxy-phenyl)pyridin-2-amine], the pIC50 [9, 17] was greater than 7.00, the pIC50 [9, 18] was greater than 7.30 and the pIC50 [10, 19] was greater than 7.00. It also gave a pIC50 [10, 20] greater than 7.30, a pIC50 [11, 21] greater than 7.00 and a pIC50 [11, 22] greater than 7.30. It also gave a pIC50 [12, 23] greater than 7.00, a pIC50 [12, 24] greater than 7.30 and a pIC50 [13, 25] greater than 7.00. For the same molecule, the pIC50 [13, 26] was greater than 7.30, the pIC50 [14, 27] was greater than 7.00 and the pIC50 [14, 28] was greater than 7.30. It also gave a pIC50 [1] greater than 7.00, a pIC50 [2] greater than 7.00 and a pIC50 [3] greater than 7.00. For the same molecule, the “inhibition of tumor growth compared to the vehicle control” value ([15]; 20 mg/kg oral BID) was 79%, the “inhibition of tumor growth compared to the vehicle control” value ([15]; 60 mg/kg oral BID) was 93% and the “reduced the tumor size” value [15] was “approximately 80%”. For the same molecule, the pIC50 [5] was greater than 7.30, the pIC50 [6] was greater than 7.00 and the pIC50 [7] was greater than 7.30.
`C[C@@H](Oc1cc(-c2ccc(P(C)(C)=O)cc2F)cnc1N)c1c(Cl)ccc(F)c1Cl` [Example 25, 3-[(1R)-1-(2,6-dichloro-3-fluoro-phenyl)ethoxy]-5-(4-dimethylphosphoryl-2-fluoro-phenyl)pyridin-2-amine] showed a pIC50 [9, 17] greater than 7.00, a pIC50 [9, 18] greater than 7.30 and a pIC50 [10, 19] greater than 7.00. It also gave a pIC50 [10, 20] greater than 7.30, a pIC50 [11, 21] greater than 7.00 and a pIC50 [11, 22] greater than 7.30. It also gave a pIC50 [12, 23] greater than 7.00, a pIC50 [12, 24] greater than 7.30 and a pIC50 [13, 25] greater than 7.00. The pIC50 [13, 26] was greater than 7.30, the pIC50 [14, 27] was greater than 7.00 and the pIC50 [14, 28] was greater than 7.30. For the same molecule, the pIC50 [1] was greater than 7.00, the pIC50 [2] was greater than 7.00 and the pIC50 [3] was greater than 7.00. The “inhibition of tumor growth compared to the vehicle control” value ([15]; 6 mg/kg oral BID) was 46%, the “inhibition of tumor growth compared to the vehicle control” value ([15]; 20 mg/kg oral BID) was 73% and the “inhibition of tumor growth compared to the vehicle control” value ([15]; 60 mg/kg oral BID) was 93%. The “reduced the tumor size” value [15] was “approximately 80%”, the pIC50 [5] was greater than 7.30 and the pIC50 [6] was greater than 7.00. The pIC50 [7] was greater than 7.30.
In the case of `C[C@@H](Oc1cc(-c2cnn(C3CCNCC3)c2)cnc1N)c1c(Cl)ccc(F)c1Cl` [crizotinib], the “cytochrome P450 3A4 inhibition” value [16] is given as “time-dependent cytochrome P450 3A4 inhibitor”.
